{
  "source": "patent US20160075653A1",
  "about": "“NEMATICIDAL N-(PHENYLCYCLOALKYL)CARBOXAMIDES AND N-(PHENYLCYCLOALKYL)THIOCARBOXAMIDES” (BAYER CROPSCIENCE AKTIENGESELLSCHAFT, priority 2013, published 2016)",
  "experiment": "Measurement of log P values by HPLC on reversed phase columns (methods [a] pH 2.3, [b] pH 2.7, [c] pH 7.8)",
  "format": "physicochemical",
  "details": "for chromatographic logP: reversed phase HPLC columns",
  "outline": "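Determined per EEC Directive 79/831 Annex V.A8 by reversed-phase HPLC, 10-95% acetonitrile gradient: [a] pH 2.3, 0.1% phosphoric acid; [b] LC-MS, pH 2.7, 0.1% formic acid; [c] LC-MS, pH 7.8, 0.001 molar ammonium hydrogen carbonate. Calibrated with C3-C16 alkan-2-ones by retention-time interpolation.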",
  "key": {"[1]": {"details": "HPLC on reversed phase column, method [b], pH 2.7"}, "[2]": {"details": "method [b], HPLC reversed phase, pH 2.7"}, "[3]": {"details": "method [c], HPLC reversed phase, pH 7.8"}, "[4]": {"details": "HPLC reversed phase, method [b] (pH 2.7)"}, "[5]": {"details": "HPLC reversed phase, method [c] pH 7.8"}, "[6]": {"details": "HPLC on reversed phase columns, method [b], pH 2.7"}},
  "note": "Like-named read-outs stand apart in the source and are kept apart here.",
  "data": [
    {"smiles": "O=C(N[C@@H]1CC[C@@H]1c1ccc(Cl)cc1C(F)(F)F)c1ccccc1Cl", "note": "(relative stereo) [Example 666]", "values": [
      {"measurement": "logP", "setting": "[1]", "result": "3.75^[b]"}
    ]},
    {"smiles": "O=C(NC1CC1c1ccc(Cl)cc1)c1c(F)cccc1F", "note": "(stereo not drawn) [Example 200]", "values": [
      {"measurement": "logP", "setting": "[2]", "result": "2.94^[b]"},
      {"measurement": "logP", "setting": "[3]", "result": "2.89^[c];"}
    ]},
    {"smiles": "O=C(NC1CCC1c1ccccc1Cl)c1ncccc1Cl", "note": "(stereo not drawn) [Compound 238, trans-3-chloro-N-[2-(2-chlorophenyl)cyclobutyl]pyridine-2-carboxamide]", "values": [
      {"measurement": "chromatographic logP", "setting": "HPLC-MS, method letter not given, read-out: log P", "result": 3.06},
      {"measurement": "chromatographic logP", "setting": "pH 2.7, method [b], HPLC reversed phase, pH 2.7, read-out: logP", "result": 3.06}
    ]},
    {"smiles": "O=C(N[C@@H]1CCC[C@@H]1c1ccccc1F)c1ccccn1", "note": "(relative stereo) [Example 339]", "values": [
      {"measurement": "logP", "setting": "[4]", "result": "1.86^[b]"},
      {"measurement": "logP", "setting": "[5]", "result": "1.95^[c];"}
    ]},
    {"smiles": "O=C(NC1CCCC1c1ccccc1Cl)c1c(F)cccc1F", "note": "(stereo not drawn) [Example 391]", "values": [
      {"measurement": "logP", "setting": "[4]", "result": "3.18^[b]"}
    ]},
    {"smiles": "CCc1nn(C)c(F)c1C(=O)N(C1CC1)C1CCCCC1c1ccccc1", "note": "(stereo not drawn) [Example 144]", "values": [
      {"measurement": "logP", "setting": "[2]", "result": "3.83^[b]"}
    ]},
    {"smiles": "O=C(N[C@@H]1CC[C@@H]1c1ccc(Cl)cc1C(F)(F)F)c1ccccc1I", "note": "(relative stereo) [Example 678]", "values": [
      {"measurement": "logP", "setting": "[1]", "result": "3.90^[b]"}
    ]},
    {"smiles": "O=C(N[C@@H]1CC[C@H]1c1ccc(Cl)cc1Cl)c1ccccc1I", "note": "(relative stereo) [Example 264]", "values": [
      {"measurement": "logP", "setting": "[4]", "result": "4.09^[b]"}
    ]},
    {"smiles": "O=C(NC1CCCCC1c1ccccc1Cl)c1cccnc1C(F)(F)F", "note": "(stereo not drawn) [Example 378]", "values": [
      {"measurement": "logP", "setting": "[4]", "result": "3.45^[b]"}
    ]},
    {"smiles": "O=C(N[C@@H]1CC[C@H]1c1ccc(F)cc1C(F)(F)F)c1ccccc1Cl", "note": "(relative stereo) [Example 512]", "values": [
      {"measurement": "logP", "setting": "[4]", "result": "3.56^[b]"}
    ]},
    {"smiles": "O=C(N[C@@H]1CC[C@@H]1c1cccc(F)c1C(F)(F)F)c1sccc1I", "note": "(relative stereo) [Example 628]", "values": [
      {"measurement": "logP", "setting": "[1]", "result": "3.65^[b]"}
    ]},
    {"smiles": "O=C(NC1CCCC1c1ccc(Cl)cc1Cl)c1c(F)cccc1F", "note": "(stereo not drawn) [Example 350]", "values": [
      {"measurement": "logP", "setting": "[4]", "result": "3.73^[b]"}
    ]},
    {"smiles": "CN(C(=O)c1c(C(F)F)nn(C)c1Cl)C1CCCCC1c1ccccc1", "note": "(stereo not drawn) [Example 197]", "values": [
      {"measurement": "logP", "setting": "[2]", "result": "3.63^[b]"}
    ]},
    {"smiles": "Cn1cc(C(=O)N[C@@H]2CCC[C@@H]2c2ccc(F)c(F)c2)c(C(F)(F)F)c1", "note": "(relative stereo) [Example 91]", "values": [
      {"measurement": "logP", "setting": "[6]", "result": "3.27^[b]"}
    ]},
    {"smiles": "O=C(N[C@@H]1CC[C@H]1c1ccccc1C(F)(F)F)c1sccc1I", "note": "(relative stereo) [Example 635]", "values": [
      {"measurement": "logP", "setting": "[1]", "result": "3.99^[b]"}
    ]},
    {"smiles": "Cc1nc(C(F)(F)F)c(C(=O)N[C@@H]2CCC[C@@H]2c2ccccc2F)s1", "note": "(relative stereo) [Example 343]", "values": [
      {"measurement": "logP", "setting": "[4]", "result": "3.18^[b]"},
      {"measurement": "logP", "setting": "[5]", "result": "3.07^[c];"}
    ]},
    {"smiles": "O=C(N[C@@H]1CCC[C@@H]1c1ccc(C(F)(F)F)cc1)c1ncccc1C(F)(F)F", "note": "(relative stereo) [Example 331]", "values": [
      {"measurement": "logP", "setting": "[4]", "result": "3.36^[b]"},
      {"measurement": "logP", "setting": "[5]", "result": "3.28^[c];"}
    ]},
    {"smiles": "O=C(N[C@@H]1CC[C@H]1c1ccccc1C(F)(F)F)c1cccnc1Cl", "note": "[Example 620]", "values": [
      {"measurement": "chromatographic logP", "setting": "pH 2.7, HPLC on reversed phase column, method [b], pH 2.7, read-out: logP", "result": 2.79}
    ]},
    {"smiles": "Cc1occc1C(=O)N[C@@H]1CCC[C@H]1c1ccc(F)c(F)c1", "note": "(relative stereo) [Example 133]", "values": [
      {"measurement": "logP", "setting": "[2]", "result": "3.17^[b]"}
    ]},
    {"smiles": "Cc1nn(C)cc1C(=O)NC1CCCC1c1ccccc1Cl", "note": "(stereo not drawn) [Example 292]", "values": [
      {"measurement": "logP", "setting": "[4]", "result": "2.24^[b]"}
    ]},
    {"smiles": "O=C(N[C@@H]1CC[C@H]1c1ccc(Br)cc1C(F)(F)F)c1cccnc1C(F)(F)F", "note": "(relative stereo) [Example 658]", "values": [
      {"measurement": "logP", "setting": "[1]", "result": "3.76^[b]"},
      {"measurement": "logP", "setting": "HPLC on reversed phase column, method [c], pH 7.8", "result": "3.66^[c];"}
    ]},
    {"smiles": "O=C(N[C@@H]1CC[C@@H]1c1ccc(F)cc1C(F)(F)F)c1ccc(Cl)cc1", "note": "(relative stereo) [Example 508]", "values": [
      {"measurement": "logP", "setting": "[4]", "result": "3.62^[b]"}
    ]},
    {"smiles": "O=C(N[C@@H]1CCC[C@@H]1c1ccc(F)c(F)c1)c1cnccc1C(F)(F)F", "note": "(relative stereo) [Example 89]", "values": [
      {"measurement": "logP", "setting": "[6]", "result": "2.92^[b]"}
    ]},
    {"smiles": "Cc1occc1C(=O)N[C@@H]1CCC[C@@H]1c1ccc(F)c(F)c1", "note": "(relative stereo) [Example 59]", "values": [
      {"measurement": "logP", "setting": "[6]", "result": "3.06^[b]"}
    ]},
    {"smiles": "O=C(NC1CC1c1ccc(Cl)cc1)c1ccccc1I", "note": "(stereo not drawn) [Compound 273]", "values": [
      {"measurement": "logP", "setting": "[4]", "result": "2.94^[b]"},
      {"measurement": "logP", "setting": "[5]", "result": "2.88^[c];"}
    ]},
    {"smiles": "O=C(N[C@@H]1CC[C@H]1c1ccc(F)cc1C(F)(F)F)c1cccnc1Cl", "note": "(relative stereo) [Example 524]", "values": [
      {"measurement": "logP", "setting": "[4]", "result": "2.93^[b]"}
    ]},
    {"smiles": "O=C(N[C@@H]1CC[C@H]1c1ccccc1Cl)c1cccnc1C(F)(F)F", "note": "(relative stereo) [Example 245]", "values": [
      {"measurement": "logP", "setting": "[4]", "result": "2.89^[b]"}
    ]},
    {"smiles": "Cc1oncc1C(=O)N[C@@H]1CCC[C@@H]1c1ccc(F)c(F)c1", "note": "(relative stereo) [Example 112]", "values": [
      {"measurement": "logP", "setting": "[6]", "result": "2.73^[b]"}
    ]},
    {"smiles": "O=C(NC1CCCC1c1ccc(Cl)cc1)c1ccccc1C(F)(F)F", "note": "(stereo not drawn) [Example 279]", "values": [
      {"measurement": "logP", "setting": "[4]", "result": "3.64^[b]"}
    ]},
    {"smiles": "O=C(N[C@@H]1CC[C@H]1c1ccc(F)cc1C(F)(F)F)c1ccccc1I", "note": "(relative stereo) [Compound 502]", "values": [
      {"measurement": "logP", "setting": "[4]", "result": "3.76^[b]"}
    ]},
    {"smiles": "Cc1nc(C(F)(F)F)c(C(=O)N(C2CC2)C2CCCCC2c2ccccc2)s1", "note": "(stereo not drawn) [Example 147]", "values": [
      {"measurement": "logP", "setting": "[2]", "result": "4.69^[b]"}
    ]},
    {"smiles": "O=C(NC1CC1c1ccc(Cl)cc1Cl)c1ccccc1I", "note": "(stereo not drawn) [Example 208]", "values": [
      {"measurement": "logP", "setting": "[2]", "result": "3.74^[b]"},
      {"measurement": "logP", "setting": "[3]", "result": "3.64^[c];"}
    ]},
    {"smiles": "O=C(N[C@@H]1CC[C@H]1c1cccc(F)c1C(F)(F)F)c1sccc1I", "note": "(relative stereo) [Example 627]", "values": [
      {"measurement": "logP", "setting": "[1]", "result": "4.02^[b]"}
    ]},
    {"smiles": "Cn1cc(C(=O)NC2CCC2c2c(Cl)cccc2Cl)c(C(F)F)n1", "note": "(stereo not drawn) [Example 726]", "values": [
      {"measurement": "logP", "setting": "[6]", "result": "2.90^[b]"}
    ]}
  ]
}
